Laboratory results taken from PubChem BioAssay (NCI).
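Cultured in 96-well plates, cells were exposed to test compound for 48 hours across five concentrations. Abbreviation: GI50, concentration required for 50% inhibition of growth. TGI denotes the concentration required for complete inhibition of growth.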

What was measured:
Assay in all cases: DTP human tumour cell line panel, 48 h
SF-268 CNS = test system: SF-268 CNS
SK-OV-3 ovarian = test system: SK-OV-3 ovarian
RXF 393 renal = test system: RXF 393 renal
786-0 renal = test system: 786-0 renal
UACC-257 melanoma = test system: UACC-257 melanoma
PC-3 prostate = test system: PC-3 prostate
HT29 colon = test system: HT29 colon
HOP-62 NSCLC = test system: HOP-62 NSCLC
MALME-3M melanoma = test system: MALME-3M melanoma
T-47D breast = test system: T-47D breast

Compound | GI50 (SF-268 CNS) [µM] | TGI (SF-268 CNS) [µM] | GI50 (SK-OV-3 ovarian) [µM] | TGI (SK-OV-3 ovarian) [µM] | GI50 (RXF 393 renal) [µM] | TGI (RXF 393 renal) [µM] | GI50 (786-0 renal) [µM] | TGI (786-0 renal) [µM] | GI50 (UACC-257 melanoma) [µM] | TGI (UACC-257 melanoma) [µM] | GI50 (PC-3 prostate) [µM] | TGI (PC-3 prostate) [µM] | GI50 (HT29 colon) [µM] | TGI (HT29 colon) [µM] | GI50 (HOP-62 NSCLC) [µM] | TGI (HOP-62 NSCLC) [µM] | GI50 (MALME-3M melanoma) [µM] | TGI (MALME-3M melanoma) [µM] | GI50 (T-47D breast) [µM] | TGI (T-47D breast) [µM]
Cn1c(=O)c(Oc2ccccc2)cc2cnc(NC3CCOCC3)nc21 | > 25 | > 25 | > 25 | > 25 | > 25 | > 25 | > 25 | > 25 | > 25 | > 25 | > 25 | > 25 | > 25 | > 25 | > 25 | > 25 | > 25 | > 25 | > 25 | > 25
NC1=Nc2cc(OCCCN3Cc4ccccc4C3)c(OCC3CC3)cc2C12CCCC2 | 3.79 | 16.9 | 4.48 | 17.4 | 1.34 | 3.58 | 1.69 | 3.77 | 2.2 | 3.94 | 2.66 | 12.7 | 1.95 | 6.53 | 3.45 | 11.5 | 1.73 | 3.26 | 1.82 | 4.54
N#C/C(=C\c1ccc(Br)cc1)n1nnc2ccccc21 | 2.62 | 9.24 | 5.11 | 22.1 | 0.427 | 1.94 | 0.501 | 1.79 | 1.19 | 4.26 | 0.47 | 2.3 | 0.411 | 2.25 | 1.92 | 10.5 | 0.727 | 2.78 | 0.376 | 4.74
COc1cc(OC)c(C(=O)/C=C/c2cccc(OC(C)=O)c2)cc1CC=C(C)C | 7.26 | 22.7 | 10.9 | 28.2 | 10.2 | 32.3 | 9.85 | 19.8 | 10.4 | 36.8 | 9.4 | 44 | 5.92 | 17.3 | 10.4 | 19.6 | 10.6 | 33.3 | 4.15 | 16.7
NC1CCC(N[C@@H]2C[C@H]2c2ccccc2)CC1 (stereo not given in full) | > 100 | > 100 | > 100 | > 100 | 59.2 | > 100 | > 100 | > 100 | > 100 | > 100 | 70.8 | > 100 | 40.1 | > 100 | 95.4 | > 100 | 21.1 | 84.7 | > 100 | > 100
Fc1ccc2[nH]cc(SSc3c[nH]c4ccc(F)cc34)c2c1 | 5.07 | 21.9 | 6.13 | 22.8 | 0.659 | 17 | 6.8 | 24.8 | 8.51 | 25.3 | 0.861 | 12 | 5.46 | 23.9 | 6.33 | 57.2 | 14.6 | 34 | 2.54 | 20.5
COc1cc(/C=C2\C(=O)Nc3cccc(Cl)c32)cc(OC)c1OC | > 100 | > 100 | > 100 | > 100 | 8.79 | 36.9 | 41.8 | > 100 | > 100 | > 100 | > 100 | > 100 | > 100 | > 100 | 32.6 | > 100 | > 100 | > 100 | > 100 | > 100
